In patent US20110166176A1, “COMPOUNDS AND COMPOSITIONS AS MODULATORS OF GPR119 ACTIVITY” (IRM LLC, priority 2008, published 2011):
pEC50: −log10 of the molar value.

Target: T1, human GPR119 (Homo sapiens, UniProt Q8TDV5)
T1 construct: expressed in transfected cells
T1 sequence (Q8TDV5 1-335): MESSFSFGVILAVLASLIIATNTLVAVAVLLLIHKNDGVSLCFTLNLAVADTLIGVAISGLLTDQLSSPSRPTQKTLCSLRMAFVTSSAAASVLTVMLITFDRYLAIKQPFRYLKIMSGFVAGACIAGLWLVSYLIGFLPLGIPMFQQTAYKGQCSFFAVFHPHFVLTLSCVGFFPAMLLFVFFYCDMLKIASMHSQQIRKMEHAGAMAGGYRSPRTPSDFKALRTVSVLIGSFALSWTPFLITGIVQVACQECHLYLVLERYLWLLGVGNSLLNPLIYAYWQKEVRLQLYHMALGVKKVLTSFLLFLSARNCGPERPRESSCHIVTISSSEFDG
Test: Cyclic AMP assay (HTRF) in stable Flp-In-CHO-hGPR119 cell line
Assay type: cell-based
Conditions: Flp-In-CHO-hGPR119 cells, intracellular cAMP, 30 minutes at 37° C., 1 mM IBMX, read-out: CHO-GPR119-HTRF (3158) EC50
Description: Flp-In-CHO cells (Invitrogen, Cat. # R758-07) are maintained in Ham's F12 medium supplemented with 10% fetal bovine serum, 1% antibiotic mixture and 2 mM L-glutamine. The cells are transfected with a DNA mixture containing human GPR119 in pcDNA5/FRT vector and the pOG44 vector (1:9) using Fugene6 (Roche), according to the manufacturer's instruction. After 48 hours, the medium is changed to medium supplemented with 400 μg/ml hygromycin B to initiate the selection of stably transfected cells.
To test the activity of compounds of the invention, Flp-In-CHO-hGPR119 cells are harvested and resuspended in DMEM plus 3% lipid-depleted fetal bovine serum. Forth μl of cells are plated in 384 well plates at a density of 15,000 cells/well. IBMX (3-isobutyl-1-methyl-xanthine) is added to the cells to a final concentration of 1 mM, followed by the addition of 500 nl of the compound to be tested. The cells are incubated at 37° C. for 30 minutes. Equal volume (20 μl) of the HTRF reagents, anti-cAMP-Cryptate and cAMP-XL665, are added to the cells. The plates are incubated at room temperature for 1 hour and read on a HTRF reader according to the manufacturer's instruction.
Compounds of Formula I, in free form or in pharmaceutically acceptable salt form, produced a concentration-dependent increase in intracellular cAMP level. […] Specific EC50 data is presented for some of the compounds of the invention in the table, infra.

SMILES	pEC50
CC(C)OC(=O)OCc1cccc(O[C@H]2CCN(c3ccc(S(C)(=O)=O)cc3F)C2)c1 [Example 18, (S)-3-(1-(2-fluoro-4-(methylsulfonyl)phenyl)pyrrolidin-3-yloxy)benzyl isopropyl carbonate]	6.10
CC(C)OC(=O)N(Cc1cccc(O[C@H]2CCN(c3ccc(S(C)(=O)=O)cc3)C2)c1)C(C)C [Example 16]	6.70
CCN(Cc1ccccc1)Cc1cccc(O[C@H]2CCN(c3ccc(S(C)(=O)=O)cc3)C2)c1 [Example 7]	6.37
CC(C)OC(=O)N1CCc2cc(CO[C@H]3CCN(c4ccc(S(C)(=O)=O)cc4)C3)ccc2C1 [Example 3, (S)-isopropyl 6-((1-(4-(methylsulfonyl)phenyl)pyrrolidin-3-yloxy)methyl)-3,4-dihydroisoquinoline-2(1H)-carboxylate]	6.69
CCN(Cc1ccccc1)Cc1cccc(O[C@H]2CCN(c3ccc(S(C)(=O)=O)cc3F)C2)c1 [Example 11]	6.45
CC(C)OC(=O)N1CCc2cc(O[C@H]3CCN(c4ccc(S(C)(=O)=O)cc4F)C3)ccc2C1 [Example 2, (S)-isopropyl 6-(1-(2-fluoro-4-(methylsulfonyl)phenyl)pyrrolidin-3-yloxy)-3,4-dihydroisoquinoline-2(1H)-carboxylate]	7.38
CCCN(Cc1cccc(O[C@H]2CCN(c3ccc(S(C)(=O)=O)cc3)C2)c1)C(=O)OC(C)C [Example 15]	6.40
CNCc1ccc(O[C@H]2CCN(c3ccc(S(C)(=O)=O)cc3)C2)cc1 [Example 5, (S)—N-methyl-1-(4-(1-(4-(methylsulfonyl)phenyl)pyrrolidin-3-yloxy)phenyl)methanamine]	6.45
CC(C)OC(=O)OCc1ccc(O[C@@H]2CCN(c3ccc(S(C)(=O)=O)cc3F)C2)cc1 [Example 19]	5.99
CS(=O)(=O)c1ccc(N2CC[C@H](Oc3cccc(CNCc4ccccc4)c3)C2)c(F)c1 [Example 9]	5.58
CNCc1cccc(O[C@H]2CCN(c3ccc(S(C)(=O)=O)cc3)C2)c1 [Example 6, (S)—N-methyl-1-(3-(1-(4-(methylsulfonyl)phenyl)pyrrolidin-3-yloxy)phenyl)methanamine]	6.50
CC(C)OC(=O)OCCc1cccc(O[C@@H]2CCN(c3ccc(S(C)(=O)=O)cc3F)C2)c1 [Example 20]	6.29
CC(C)N(Cc1ccccc1)Cc1cccc(O[C@H]2CCN(c3ccc(S(C)(=O)=O)cc3)C2)c1 [Example 8]	6.23
CC(C)OC(=O)N(C)Cc1cccc(O[C@H]2CCN(c3ccc(S(C)(=O)=O)cc3)C2)c1 [Example 17]	6.58
CCCN(Cc1ccccc1)Cc1cccc(O[C@H]2CCN(c3ccc(S(C)(=O)=O)cc3F)C2)c1 [Example 13]	6.14
CN(Cc1ccccc1)Cc1cccc(O[C@H]2CCN(c3ccc(S(C)(=O)=O)cc3F)C2)c1 [Example 10]	6.59
CC(C)N(Cc1ccccc1)Cc1cccc(O[C@H]2CCN(c3ccc(S(C)(=O)=O)cc3F)C2)c1 [Example 12]	7.48
CC(C)OC(=O)N1CCc2ccc(CO[C@H]3CCN(c4ccc(S(C)(=O)=O)cc4)C3)cc2C1 [Example 4, (S)-isopropyl 7-((1-(4-(methylsulfonyl)phenyl)pyrrolidin-3-yloxy)methyl)-3,4-dihydroisoquinoline-2(1H)-carboxylate]	6.37
CCN(Cc1cccc(O[C@H]2CCN(c3ccc(S(C)(=O)=O)cc3)C2)c1)C(=O)OC(C)C [Example 14, (S)-Isopropyl ethyl(3-(1-(4-(methylsulfonyl)phenyl)pyrrolidin-3-yloxy)benzyl)carbamate]	7.09
CC(C)OC(=O)N1CCc2cc(O[C@H]3CCN(c4ccc(S(C)(=O)=O)cc4)C3)ccc2C1 [Example 1, (S)-isopropyl 6-(1-(4-(methylsulfonyl)phenyl)pyrrolidin-3-yloxy)-3,4-dihydroisoquinoline-2(1H)-carboxylate]	7.07
